{"source": "paper PMC7613620", "about": "“Reaction hijacking of tyrosine tRNA synthetase as a whole-of-life-cycle antimalarial strategy” (Science (New York, N.Y.), 2022)", "key": {"[1]": {"biological_target": "ubiquitin activating enzyme (UAE) (Homo sapiens, UniProt P22314)", "sequence (P22314 whole entry)": "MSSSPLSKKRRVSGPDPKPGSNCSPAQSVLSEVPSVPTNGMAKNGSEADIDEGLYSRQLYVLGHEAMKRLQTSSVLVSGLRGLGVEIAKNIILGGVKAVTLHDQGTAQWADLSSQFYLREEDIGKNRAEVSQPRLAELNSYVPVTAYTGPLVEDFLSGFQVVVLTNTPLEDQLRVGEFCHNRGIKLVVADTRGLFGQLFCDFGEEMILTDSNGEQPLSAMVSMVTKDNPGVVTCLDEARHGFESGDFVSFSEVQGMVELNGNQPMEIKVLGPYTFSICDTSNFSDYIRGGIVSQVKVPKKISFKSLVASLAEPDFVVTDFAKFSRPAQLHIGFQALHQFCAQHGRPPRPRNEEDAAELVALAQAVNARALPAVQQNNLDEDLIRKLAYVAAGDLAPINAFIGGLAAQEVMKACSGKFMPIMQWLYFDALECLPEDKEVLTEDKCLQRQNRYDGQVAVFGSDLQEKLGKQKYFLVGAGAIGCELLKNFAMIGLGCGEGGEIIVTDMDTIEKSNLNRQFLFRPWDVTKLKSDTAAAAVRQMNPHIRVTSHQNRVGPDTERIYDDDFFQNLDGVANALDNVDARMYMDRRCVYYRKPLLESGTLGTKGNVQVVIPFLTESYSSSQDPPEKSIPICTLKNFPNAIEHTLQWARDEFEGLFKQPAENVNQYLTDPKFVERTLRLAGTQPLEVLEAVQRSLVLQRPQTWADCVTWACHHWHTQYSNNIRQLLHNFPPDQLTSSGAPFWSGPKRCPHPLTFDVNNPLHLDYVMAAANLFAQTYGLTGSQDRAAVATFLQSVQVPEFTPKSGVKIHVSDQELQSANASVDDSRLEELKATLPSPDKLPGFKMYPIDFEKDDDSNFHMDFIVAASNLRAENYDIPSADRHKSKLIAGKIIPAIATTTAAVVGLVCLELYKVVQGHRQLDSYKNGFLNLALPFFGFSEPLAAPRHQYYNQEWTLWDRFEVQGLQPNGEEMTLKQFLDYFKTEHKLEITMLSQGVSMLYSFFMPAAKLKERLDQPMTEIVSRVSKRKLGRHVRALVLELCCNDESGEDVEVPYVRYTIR", "experiment": "E1-E2 transthiolation HTRF assay, UAE", "assay_type": "biochemical", "excerpt": "592 E1-E2 Transthiolation Assays\n593 An Homogeneous Time-Resolved Fluorescence (HTRF) enzyme assay was employed to evaluate\n594 compound activity against ATG7 as previously described (11). In this assay, a Flag-tagged ATG8 homolog\n595 (GABA type A receptor-associated protein; GABARAP) is activated by ATG7 and then transthiolated to a\n596 GST-tagged E2 (ATG3). The product of the enzyme reaction, Flag-GABARAP-ATG3-GST, is quantified\n597 by measuring FRET between Europium-Cryptate labelled monoclonal anti-Flag M2 (CisBio International,\n598 Cat# 61FG2KLB) and PHYCOLINK goat anti-GST allophycocyanin (Prozyme, PJ252p1). The activation\n599 and transthiolation of ubiquitin by Ubiquitin Activating Enzyme, activation and transthiolation of NEDD8\n600 by NEDD8 Activating Enzyme. […]\n606 Compounds were incubated with mature stage V gametocytes ([…], kind gift from Professor Chris Janse\n607 at Leiden University Medical Center (LUMC), the Netherlands) for 48 hours in 384 well plates before\n608 gamete formation was triggered by a drop in temperature and addition of xanthurenic acid. […]\n611 Multiple data sets using different gametocyte cultures were collected on each of two separate days.\n613 Activity against exoerythrocytic stages\n614 Primary human hepatocytes (H1500.H15B+ Lot No. HC10-10 Cryopreserved human hepatocytes) […]"}, "HsYRS": {"biological_target": "T1, HsYRS (Homo sapiens, UniProt P54577)", "T1 construct": "made in house; host or cells: E. coli BL21(DE3), pET-11a", "T1 sequence (P54577 1-364)": "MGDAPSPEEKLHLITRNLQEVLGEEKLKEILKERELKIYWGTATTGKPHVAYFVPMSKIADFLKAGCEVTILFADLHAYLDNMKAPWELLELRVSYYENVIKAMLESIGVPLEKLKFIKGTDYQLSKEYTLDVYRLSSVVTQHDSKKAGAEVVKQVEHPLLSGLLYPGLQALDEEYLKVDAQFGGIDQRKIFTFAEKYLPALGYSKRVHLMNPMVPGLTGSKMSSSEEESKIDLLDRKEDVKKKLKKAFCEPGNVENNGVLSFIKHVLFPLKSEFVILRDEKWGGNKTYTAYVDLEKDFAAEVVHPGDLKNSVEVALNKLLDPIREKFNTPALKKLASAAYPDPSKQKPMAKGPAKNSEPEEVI", "experiment": "Differential scanning fluorimetry, HsYRS", "assay_type": "binding", "settings": "in the presence of ML901 plus substrates", "protocol": "This DNA template and its complementary strand were custom-synthesized by Sigma-\n810 (HiScribe™ T7 Quick High Yield RNA Synthesis Kit, NEB). On the following day, the reaction mixture\n820 was sealed and analysed using StepOnePlus Real-Time PCR system (Applied Biosystems). The samples\nThe thermal unfolding curve was plotted\nThe melting temperature (Tm), defined as the\nReactions were conducted in 50 mM Tris-\nReactions were conducted in 50 mM Tris-HCL, pH 7.6,"}, "in vivo": {"experiment": "in vivo", "settings": "male, Sprague-Dawley, rat", "protocol": "625 of 50 mg/kg of compound on day 3 post-infection and measuring the effect on blood parasitemia by\n626 microscopic analysis of Giemsa-stained blood smears (on days 3, 4, 5, 6 and 7 post-infection). Mice were\n630 Human biological samples were sourced ethically; and their research use was in accord with the terms of\n631 the informed consent. All animal studies were ethically reviewed and carried out in accredited facilities in\n632 accordance with the relevant country’s directives and the institution’s Policy on the Care, Welfare and\n633 Treatment of Animals.\n635 Plasma exposure in infected mouse model\n636 Compound was administered orally to two mice at 25 mg/kg on days 3, 4, 5, 6 after infection. On day 3,\n637 blood samples (20 μL) were obtained at time points up to 24 hours after the first administration. Protein was\n638 precipitated with acetonitrile and the remaining compound was assessed by LC-MS/MS in the selected reaction\n641 Rat pharmacokinetics (PK) analyses\n642 Sprague-Dawley rats (11 weeks old) were sourced from Hilltop Lab Animals, Inc (Scottdale, Pennsylvania,\n643 USA). […]\n648 0.5% formic acid in methanol and the supernatants were analysed by positive ion electrospray LC-MS for\n649 the administered compound. Non-compartmental pharmacokinetic parameters were calculated from […]\n660 IGM Genomics Center on the Illumina HiSeq 2500 in RapidRun mode to generate 100bp paired-end reads."}, "H460": {"system": "H460", "experiment": "H460 cell viability (ATP content)", "assay_type": "cell-based", "settings": "Homo sapiens, NCI-H460, 72 h, read-out: H460 IC50(72h)", "protocol": "574 H1650 is a human lung cancer derived ATG7-null cell line (49) that can be used to assess effects on targets\n576 adenocarcinoma; bronchoalveolar carcinoma). Other cells lines used are: H460 (NCI-H460; human lung;\n577 carcinoma; large cell lung cancer; ATCC: HTB-177); and HCT116 (human colon; colorectal carcinoma;\n578 ATCC: CCL-247; Lot : 5056139). Each of the cell lines was received from the American Type Culture\n579 Collection (ATCC) and passaged twice before freezing. Cells were cultured in the presence or absence of\n580 inhibitors and cell viability was assessed by comparing the ATP content in compound-treated wells with\n581 that in DMSO-treated wells as previously described (11). […]\n585 37°C humidified incubator as adherent semi-confluent monolayers in complete Dulbecco’s Modified Eagle\n586 Media (c-DMEM). DMEM (Gibco™, Thermo Fisher Scientific, Australia) was supplemented with 10%"}}, "data": [{"smiles": "Nc1ncnc2c1c(OC(F)F)nn2[C@@H]1O[C@H](COS(N)(=O)=O)[C@@H](O)[C@H]1O", "note": "[ML901]", "values": [{"measurement": "IC50", "setting": "[1]", "result": "> 1", "unit": "µM"}, {"measurement": "thermal stabilization of HsYRS", "setting": "HsYRS", "result": "not stabilized"}, {"measurement": "Vd", "setting": "in vivo; iv, 1 mg/kg, Vss", "result": 4.89, "unit": "L/kg"}, {"measurement": "Cmax", "setting": "in vivo; po, 10 mg/kg, p.o. Cmax", "result": 130, "unit": "nM"}, {"measurement": "IC50", "setting": "H460", "result": 4.65, "unit": "µM"}]}]}
